Consider 1 compound from patent US20100150894A1, “COMPOSITION FOR PREVENTION OF CANCER” (Kaneka Corporation, priority 2005, published 2010).

The assay concerns azoxymethane (AOM)-induced aberrant crypt foci (ACF) in colon. Briefly: Cancer prevention evaluation: AOM-induced colon aberrant crypt foci (ACF) in rats. The class given is in vivo. The settings on record: male F344 rats, 4 weeks; for number of formation of ACF compared with the control group: AOM 15 mg/kg s.c. once a week over two weeks. As for the experimental part: 6-week-old male F344 rats were divided into 3 groups (2 treated groups and 1 control group; each group consisted of 9 rats) and a colon carcinogen azoxymethane (AOM) was injected subcutaneously at the dose of 15 mg/kg body weight once a week over two weeks. From the day before injection of AOM, to the treated groups, coenzyme Q10 (Kaneka Q10, Kaneka Corporation) was fed together with feed at the concentration of 200 or 500 ppm, respectively. 4 weeks later, aberrant crypt foci (ACF), which is a precancerous change in colon cancer, was analyzed. After the rats were sacrificed, the colons (from the cecum to rectum) were enucleated and fixed using a 10% neutral buffered formalin. After the fixation, the colons were washed with a phosphate buffered-saline and stained with a 0.2% methylene blue-containing phosphate buffered-saline. Then, the number and size of ACF were measured using a microscope. […] As observed above, it was made clear that coenzyme Q10 has an effect for inhibiting the initial stage of AOM-induced formation of colon ACF, which is a precancerous change of colon cancer.

Turning to `COC1=C(OC)C(=O)C(C/C=C(\C)CC/C=C(\C)CC/C=C(\C)CC/C=C(\C)CC/C=C(\C)CC/C=C(\C)CC/C=C(\C)CC/C=C(\C)CC/C=C(\C)CCC=C(C)C)=C(C)C1=O` [coenzyme Q10], the “number of formation of ACF compared with the control group” value (coenzyme Q10 200 ppm in feed) is 76.6% and the “number of formation of ACF compared with the control group” value (coenzyme Q10 500 ppm in feed, p<0.01) came out at 68.0%. Further, the “size difference in ACF between control group and treated groups” value (AOM-induced, coenzyme Q10 200 or 500 ppm in feed) is “not recognized”.
